The values below come from patent US20120122085A1, “RECQL4/RECQL4 VARIANT-P53 COMPLEX FOR ALTERED MITOCHONDRIAL FUNCTION IN ROTHMUND-THOMSON SYNDROME” (NATIONAL INSTUTUTE OF IMMUNOLOGY, priority 2009, published 2012).

Entries after “also recorded” stand apart in the source; their conditions may differ.

This test deals with RTS patient cells. The experiment in a line: Intracellular ROS in RTS cells measured by oxidation of CM-H2DCFDA after DNA damage. As to conditions: post exposure to mitomycin C, FIG. 10E. In kind it is cell-based, human. The source says: By transmission electron microscopy (TEM) we observed that the mitochondrial cristae were distorted and the intercristal space expanded in all the RTS fibroblasts grown under asynchronous conditions (FIG. 10A). The extent of the cristae space is known to affect the overall chemiosmotic function in the cell (Mannella, 2006). […] Apart from ATP, mitochondria also produce the reactive oxygen species (ROS). Spontaneous ROS levels are usually low in normal cells as elevation of ROS levels can result in significant damage to cell structure (Schumacker, 2006). Indeed the level of ROS in asynchronous NHF was low as determined by the oxidation of 5-(and-6)-chloromethyl-2′,7′-dichlorodihydrofluorescein diacetate, acetyl ester (CM-H2DCFDA). […] Mitochondrial mass was determined by usage of a fluorescent dye Mitotracker Red 580 (200 nM, Invitrogen). […] The cells were subsequently washed, fixed and then analyzed in a Zeiss 510 Meta system with a 40×/0.95 Con objective. The fluorescence was captured initially for NHF and the acquisition parameters were kept unchanged for the capture of the fluorescence for the RTS cells. […] The activity was measured at 412 nm at 30° C. using 10 μg for each sample. Activity was expressed as nmole/min/mg of protein. Intracellular ROS in RTS cells was measured by the oxidation of CM-H2DCFDA (4 μM, Invitrogen). […]

Take `O=C1O[C@H]([C@@H](O)CO)C(O)=C1O` [ascorbic acid]: the “effect on abnormally high ROS levels in RTS cells after DNA damage” value is recorded as “decreases the load of reactive oxygen species; also recorded: reversed this effect”.
